Results taken from patent publication US12595243B2, “Modulators of extracellular signal-regulated kinase” (GEN1E LIFESCIENCES INC., priority 2023, dated 2026).
Read-outs that look alike come from different tables or passages of the source.

How the values were obtained:
[1] = system: melanoma cell line RPMI-7951; assay: Cytotoxicity in cancer cell lines (CellTiter-Glo), RPMI-7951; type: cell-based; settings: Homo sapiens
Source text: (§1) All cells were obtained from ATCC. […] Normocin® was obtained from InvivoGen. FBS was obtained from Gibco. […] All test compounds were synthesized as described herein.

[2] = system: glioblastoma cell line U87; assay: Cytotoxicity in cancer cell lines (CellTiter-Glo), U87; type: cell-based
Source text: as §1

[3] = system: melanoma cell line Sk-Mel-28; assay: Cytotoxicity in cancer cell lines (CellTiter-Glo), Sk-Mel-28; type: cell-based
Source text: as §1

[4] = system: melanoma cell line A375; assay: Cytotoxicity in cancer cell lines (CellTiter-Glo), A375; settings: A375 cells, mean of three tests
Protocol: (§2) The cytotoxicity of test compounds was determined for several cell lines including melanoma cell line RPMI-7951, melanoma cell line Sk-Mel-28, melanoma cell line A375, melanoma cell line U87, glioblastoma cell line U87, immortalized human T lymphocyte Jurkat cells, and human pancreatic carcinoma cell line PL-45.
(§3) All cells were obtained from ATCC. RPMI, DMEM, EMEM and pen/strep were obtained from Invitrogen. Normocin® was obtained from InvivoGen. FBS was obtained from Gibco. Cell viability reagent Cell-titer glow was obtained from Promega.
(§4) The growth media for A375 and PL45 cells was DMEM supplemented with antibiotic/anti-mycotic pen/strep and Normocin® (InvivoGen) and 10% FBS.
(§5) Ten (10) mM solutions of each of the test compounds were prepared in dimethyl sulfoxide (DMSO) and serially diluted in DMSO to provide solutions having concentrations of the test compound of 3 mM, 1 mM, 0.3 mM, 0.1 mM, 0.03 mM, or 0.01 mM. Forty (40) μL of each of the solutions were further diluted to 400 μL in the cell specific complete media to provide 10× stock solutions having a 1 mM, 300 μM, 100 μM, 30 μM, 10 μM, 3 μM, 1 μM, or 0.3 μM of the test compound. Ten (10) μL of DMSO was diluted to 400 μL in the complete media and used as the 0 μM control.
(§6) For the cytotoxicity studies, all cells were grown in their respective complete media. Confluent cells were harvested and plated into two 96-well tissue culture treated plates at 5,000-8,000 cells/wells in 180 μL media. Twenty (20) μL of each of the 10× stock solutions were added to the wells and mixed.
(§7) After incubating for 24 h, media was aspirated out and replaced with 180 μL/well of the fresh media and 20 μL/well of the 10× stock solutions in duplicate wells in duplicate plates (Plates 1 and 2; and 3 and 4) and in quadruplicate wells (Plate 5) were added, mixed and cultured for 48 hours. The final concentrations of each test compound were 100 μM, 30 μM, 10 μM, 3 μM, 1 μM, 0.3 μM, 0.1 μM and 0 μM.
(§8) After 48 hours and/or 72 hours following addition of the test compounds, one plate each was removed from the incubator, the media aspirated out, 100 μL of CellTiter-Glo® reagent added to each well, and the resulting luminescent signals measured using a VICTOR-2® plate reader.
(§9) The data from the plate reader were exported to GraphPad (Prism) and data processed using non-linear regression and EC50 value determined.

[5] = system: immortalized human T lymphocyte Jurkat cells; assay: Cytotoxicity in cancer cell lines (CellTiter-Glo), Jurkat; type: cell-based
Source text: as §1

[6] = system: human pancreatic carcinoma cell line PL-45; assay: Cytotoxicity in cancer cell lines (CellTiter-Glo), PL-45; settings: PL45, 48 h, read-out: Cytotoxicity EC50 at 48 hours, PL-45
Protocol: as §2, §3, §4, §5, §6, §7, §8, §9

[7] = RPMI-7951, 48 h, read-out: Cytotoxicity EC50 at 48 hours, RPMI
[8] = Homo sapiens, U-87 MG, 48 h; U87 cells; mean of three tests; read-out: Cytotoxicity EC50 at 48 hours, U87
[9] = Homo sapiens, SK-MEL-28, 48 h, 48 h, Sk-Mel-28 cells, mean of three tests, read-out: Cytotoxicity EC50 at 48 hours, Sk mel
[10] = Homo sapiens, A-375, 48 h, read-out: Cytotoxicity EC50 at 48 hours, A375, 48 h
[11] = 48 h, Jurkat cells, mean of three tests, read-out: Cytotoxicity EC50 at 48 hours, Jurkat
[12] = RPMI-7951, 72 h, read-out: Cytotoxicity EC50 at 72 hours, RPMI
[13] = Homo sapiens, U-87 MG, 72 h; U87 cells; mean of three tests; read-out: Cytotoxicity EC50 at 72 hours, U87
[14] = Homo sapiens, SK-MEL-28, 72 h, 72 h, Sk-Mel-28 cells, mean of three tests, read-out: Cytotoxicity EC50 at 72 hours, Sk mel
[15] = Homo sapiens, A-375, 72 h, read-out: Cytotoxicity EC50 at 72 hours, A375, 72 h
[16] = 72 h, Jurkat cells, mean of three tests, read-out: Cytotoxicity EC50 at 72 hours, Jurkat
[17] = Homo sapiens, SK-MEL-28, 48 h, read-out: Cytotoxicity EC50 at 48 hours, Sk mel
[18] = Homo sapiens, SK-MEL-28, 72 h, read-out: Cytotoxicity EC50 at 72 hours, Sk mel
[19] = Homo sapiens, U-87 MG, 48 h, read-out: Cytotoxicity EC50 at 48 hours, U87
[20] = Homo sapiens, U-87 MG, 72 h, read-out: Cytotoxicity EC50 at 72 hours, U87
[21] = Jurkat, 48 h, read-out: Cytotoxicity EC50 at 48 hours, Jurkat
[22] = Jurkat, 72 h, read-out: Cytotoxicity EC50 at 72 hours, Jurkat

Row | Compound | EC50 [1, 7] [µM] | EC50 [2, 8] [µM] | EC50 [3, 9] [µM] | EC50 [4, 10] [µM] | EC50 [5, 11] [µM] | EC50 [1, 12] [µM] | EC50 [4, 15] [µM] | EC50 [6] [µM] | also measured
1 | CN(C1C=CS(=O)(=O)C1)S(=O)(=O)c1ccc2ccccc2c1 (stereo not shown) [(2), N-(1,1-dioxido-2,3-dihydrothiophen-3-yl)-N-methylnaphthalene-2-sulfonamide] | 85 | > 100 | > 100 | > 100 | 53 |  |  |  | 
2 | O=S1(=O)C=CC(NS(=O)(=O)c2ccc3ccccc3c2)C1 (stereo not shown) [(3), N-(1,1-dioxido-2,3-dihydrothiophen-3-yl)naphthalene-2-sulfonamide] | 19 | 100 | > 100 | 14 | 6 |  |  |  | 
3 | O=S1(=O)C=CC(OCc2ccc3ccccc3c2)C1 (stereo not shown) [(4), 3-(naphthalen-2-ylmethoxy)-2,3-dihydrothiophene 1,1-dioxide] | 44 | > 100 | 78 | 19 | 7 | 26 | 5 |  | EC50 [2, 13]: 53 µM; EC50 [3, 14]: 42 µM; EC50 [5, 16]: 4 µM
4 | O=S1(=O)C=CC(OCc2ccc(-c3ccccc3)cc2)C1 (stereo not shown) [(5), 3-([1,1′-biphenyl]-4-ylmethoxy)-2,3-dihydrothiophene 1,1-dioxide] | 72 | > 100 | > 100 | 80 | 6 | 86 | 75 |  | EC50 [2, 13]: > 100 µM; EC50 [3, 14]: > 100 µM; EC50 [5, 16]: 2 µM
5 | O=S1(=O)C=CC(OCc2ccc(Oc3ccccc3)cc2)C1 (stereo not shown) [(6), 3-((4-phenoxybenzyl)oxy)-2,3-dihydrothiophene 1,1-dioxide] | 40 | > 100 | 69 | 24 | > 100 | 24 | 19 |  | EC50 [2, 13]: 46 µM; EC50 [3, 14]: 48 µM; EC50 [5, 16]: > 100 µM
6 | O=S1(=O)C=CC(OCCc2ccc3ccccc3c2)C1 (stereo not shown) [(7), 3-(2-(naphthalen-2-yl)ethoxy)-2,3-dihydrothiophene 1,1-dioxide] | 19 |  | 95 | 29 | 10 |  |  |  | 
7 | O=C(COC1C=CS(=O)(=O)C1)c1ccc2ccccc2c1 (stereo not shown) [(8), 2-((1,1-dioxido-2,3-dihydrothiophen-3-yl)oxy)-1-(naphthalen-2-yl)ethan-1-one] | 20 |  |  | 11 | 0.5 | 16 | 46 |  | EC50 ([2]; Homo sapiens, U-87 MG; 48 h; U87 cells; mean of three tests; read-out: Cytotoxicity EC50 at 48 hours, U87): > 100 µM; EC50 ([2]; Homo sapiens, U-87 MG; 72 h; U87 cells; mean of three tests; read-out: Cytotoxicity EC50 at 72 hours, U87): 37 µM; EC50 [3, 17]: > 100 µM; EC50 [3, 18]: 77 µM; EC50 [5, 16]: 0.5 µM
8 | O=C(COC1C=CS(=O)(=O)C1)c1ccc(-c2ccccc2)cc1 (stereo not shown) [(9), 1-([1,1′-biphenyl]-4-yl)-2-((1,1-dioxido-2,3-dihydrothiophen-3-yl)oxy)ethan-1-one] | 11 |  |  | 19 |  | 10 | 47 |  | EC50 [2, 19]: 32 µM; EC50 [2, 20]: 28 µM; EC50 [3, 17]: 71 µM; EC50 [3, 18]: 12 µM; EC50 [5, 21]: 22 µM; EC50 [5, 22]: 9 µM
9 | O=C(Nc1ccc2ccccc2c1)OC1C=CS(=O)(=O)C1 (stereo not shown) [(10), 1,1-dioxido-2,3-dihydrothiophen-3-yl naphthalen-2-ylcarbamate] | 39 |  |  | 31 |  | 28 | 46 |  | EC50 [2, 19]: > 100 µM; EC50 [2, 20]: 31 µM; EC50 [3, 17]: 38 µM; EC50 [3, 18]: 25 µM; EC50 [5, 21]: > 100 µM; EC50 [5, 22]: 8 µM
10 | O=C(Nc1ccc(-c2ccccc2)cc1)OC1C=CS(=O)(=O)C1 (stereo not shown) [(11), 1,1-dioxido-2,3-dihydrothiophen-3-yl [1,1′-biphenyl]-4-ylcarbamate] | 25 |  |  |  |  | 12 | 97 |  | EC50 [2, 19]: 3 µM; EC50 [3, 17]: 66 µM; EC50 [3, 18]: 62 µM; EC50 [5, 21]: 10 µM
11 | O=C(Nc1ccc2ccccc2c1)NC1C=CS(=O)(=O)C1 (stereo not shown) [(12), 1-(1,1-dioxido-2,3-dihydrothiophen-3-yl)-3-(naphthalen-2-yl)urea] | 100 |  |  | > 100 |  |  |  |  | EC50 [2, 19]: > 100 µM; EC50 [3, 17]: > 100 µM; EC50 [5, 21]: > 100 µM
12 | O=C(Nc1ccc(-c2ccccc2)cc1)NC1C=CS(=O)(=O)C1 (stereo not shown) [(13), 1-([1,1′-biphenyl]-4-yl)-3-(1,1-dioxido-2,3-dihydrothiophen-3-yl)urea] | > 100 | 1 | > 100 | > 100 | 86 |  |  |  | 
13 | O=C(NC1C=CS(=O)(=O)C1)c1ccc2ccccc2c1 (stereo not shown) [(14), N-(1,1-dioxido-2,3-dihydrothiophen-3-yl)-2-naphthamide] | 12 | > 100 | > 100 | 86 | 10 | 9.4 | 70 |  | EC50 [3, 14]: 100 µM
14 | O=C(Cc1ccc2ccccc2c1)NC1C=CS(=O)(=O)C1 (stereo not shown) [(15), N-(1,1-dioxido-2,3-dihydrothiophen-3-yl)-2-(naphthalen-2-yl)acetamide] | 36 | 100 | 73 | 42 | 26 |  |  |  | 
15 | CN(C1CCS(=O)(=O)C1)S(=O)(=O)c1ccc2ccccc2c1 (stereo not shown) [(16)] | > 100 | > 100 | > 100 | > 100 | 9 | > 100 | 100 |  | EC50 [2, 13]: > 100 µM; EC50 [3, 14]: > 100 µM; EC50 [5, 16]: 8 µM
16 | CN(C1=CS(=O)(=O)CC1)S(=O)(=O)c1ccc2ccccc2c1 [(19), N-(1,1-dioxido-4,5-dihydrothiophen-3-yl)-N-methylnaphthalene-2-sulfonamide] | > 100 | > 100 | 82 | > 100 | > 100 |  |  |  | EC50 ([3]; 48 h, Sk-Mel-28 cells, mean of three tests, read-out: Cytotoxicity EC50 at 48 hours, Sk mel): > 100 µM
17 | CN(C1=CCS(=O)(=O)C1)S(=O)(=O)c1ccc2ccccc2c1 [(20), N-(1,1-dioxido-2,5-dihydrothiophen-3-yl)-N-methylnaphthalene-2-sulfonamide] | > 100 | > 100 | > 100 | > 100 | > 100 |  |  |  | 
18 | O=C(OC1C=CS(=O)(=O)C1)c1ccc(Oc2ccccc2)cc1 (stereo not shown) [(23), 1,1-Dioxido-2,3-dihydrothiophen-3-yl 4-phenoxybenzoate] |  |  |  | 23 |  |  |  | 8.3 | 
19 | O=C(OC1C=CS(=O)(=O)C1)c1ccc(-c2ccccc2)cc1 (stereo not shown) [(24), 1,1-dioxido-2,3-dihydrothiophen-3-yl [1,1′-biphenyl]-4-carboxylate] |  |  |  | > 100 |  |  |  | 49 | 
20 | O=S1(=O)C=CC(OS(=O)(=O)c2cccc(Oc3ccccc3)c2)C1 (stereo not shown) [(25), 1,1-dioxido-2,3-dihydrothiophen-3-yl 3-phenoxybenzenesulfonate] |  |  |  | 6 |  |  |  | 0.9 | 
21 | O=S1(=O)C=CC(OS(=O)(=O)c2cccc(-c3ccccc3)c2)C1 (stereo not shown) [(26), 1,1-dioxido-2,3-dihydrothiophen-3-yl [1,1′-biphenyl]-3-sulfonate] |  |  |  | 7 |  |  |  | 1 | 
22 | O=S1(=O)C=CC(OS(=O)(=O)c2ccc(Cc3ccccc3)cc2)C1 (stereo not shown) [(28), 1,1-dioxido-2,3-dihydrothiophen-3-yl 4-benzylbenzenesulfonate] |  |  |  | 14 |  |  |  | 0.9 | 
23 | O=S1(=O)C=CC(OS(=O)(=O)c2ccc(COc3ccccc3)cc2)C1 (stereo not shown) [(29), 1,1-dioxido-2,3-dihydrothiophen-3-yl 4-(phenoxymethyl)benzenesulfonate] |  |  |  | 10 |  |  |  | 1 | 
24 | COS(=O)(=O)c1ccc2ccccc2c1 [(30), methyl naphthalene-2-sulfonate] |  |  |  | > 100 |  |  |  | 8.8 | 
25 | CCOS(=O)(=O)c1ccc2ccccc2c1 [(31), ethyl naphthalene-2-sulfonate] |  |  |  | > 100 |  |  |  |  | 
26 | CC(C)OS(=O)(=O)c1ccc2ccccc2c1 [(32), isopropyl naphthalene-2-sulfonate] |  |  |  | > 100 |  |  |  |  | 
27 | O=S1(=O)C=CC(OS(=O)(=O)c2ccc(-c3ccccc3)cc2)C1 (stereo not shown) [(33), 1,1-dioxido-2,3-dihydrothiophen-3-yl [1,1′-biphenyl]-4-sulfonate] |  |  |  |  |  |  |  | 2.3 | EC50 ([4]; read-out: Cytotoxicity EC50 at 48 hours, A375, 48 h): 1 µM
28 | O=S1(=O)C=CC(OS(=O)(=O)c2ccc(C3CCCCC3)cc2)C1 (stereo not shown) [(34), 1,1-dioxido-2,3-dihydrothiophen-3-yl 4-cyclohexylbenzenesulfonate] |  |  |  | 1.5 |  |  |  | 0.9 | 
